2 molecules from PMC10897476, “Pyridylpiperazine efflux pump inhibitor boosts in vivo antibiotic efficacy against K. pneumoniae” (EMBO Molecular Medicine, 2023) can be followed below.

The subject of data set [1] is K. pneumoniae ATCC 43816 (WT). In words: MIC of antibiotics with and without EPI (REMA), WT strain. The data set is classed as cell-based, Klebsiella pneumoniae. As to conditions: K. pneumoniae WT. As to the method:
Overnight cultures were diluted to an OD600 = 0.001 in CAMHB followed by addition of efflux pump inhibitors (EPIs) at a final concentration of 100 µM. […] Plates were incubated at 37 °C for up to 20 h. […] MICs were defined as the concentration that prevented 90% of resazurin turnover compared to the non-treated bacteria.

For data set [2], the system named is K. pneumoniae AcrB^V448E RamR^mut. In words: MIC of antibiotics with and without EPI (REMA), double mutant. As to conditions: K. pneumoniae AcrB^V448E RamR^mut. The data set is classed as cell-based, Klebsiella pneumoniae.
A short description of data set [3]: Pharmacokinetics in mice in combination with levofloxacin (plasma, lung after BAL, ELF). As to conditions: female, CD-1, mouse, ELF and plasma, oral; higher than plasma; read-out: ELF exposure (AUC) relative to that measured in the plasma. The data set is classed as in vivo, female CD-1 mice. The protocol: The concentration of compounds in plasma, lungs and ELF was measured after 2 h, 6 h and 24 h. […] After rodent sacrifice by cervical dislocation, bronchoalveolar lavage (BAL) fluid was collected using a cannula inserted into the trachea. 1 mL of PBS was introduced in lungs via the cannula and the collected BAL fluid was centrifuged (5 min, 3500 rpm, 4 °C). Supernatants were removed, their volume recorded, and samples stored at −80 °C until analysis.
Plasma and BAL fluid samples were thawed on ice.
The concentration of compound in ELF, [cpd]ELF, was calculated as follows: cpdELF=cpdBALxVBAL/VELF where [cpd]BAL is the measured concentration of compound in BAL fluid supernatant, VBAL and VELF, the volume of aspired BAL and the calculated volume of ELF, respectively.
The volume of ELF was calculated as follows: VELF=VBALxUreaBAL/UreaPlasma where VELF represents the apparent volume of ELF, VBAL is the volume of aspired BAL, and [Urea]BAL and [Urea]Plasma are concentration of urea in BAL fluid or plasma, respectively.
Concentrations of urea in plasma and in BAL fluid supernatant was measured using the UREA Nitrogen (BUN) colorimetric detection kit, according to the supplier procedural guidelines (Invitrogen).

For another data set, the system named is E. coli BW25113. In words: PyrPip boosting of pyridomycin activity in E. coli (resazurin reduction). As to conditions: read-out: PyrPip antibiotic boosting activity EC90; E. coli BW25113 in the presence of 8 μg/mL pyridomycin, resazurin reduction; mean ± SEM. The data set is classed as cell-based, Escherichia coli. From the text: With the aim of developing a PyrPip for in vivo efficacy studies in mice, it was important to optimise the metabolic stability of these efflux pump inhibitors to guarantee sufficient exposure in mice needed for antibiotic boosting. […] To identify metabolically stabilised PyrPips while maintaining AcrB inhibition, it was therefore decided to explore modifications to the quinoline core as well as the introduction of substituents at position 6 of the quinoline ring.
(In general: Resazurin is reduced to fluorescent resorufin, in cell work by metabolically active cells.)

Data set [4] addresses T1, hERG Human Potassium Ion Channel (Homo sapiens, UniProt Q12809).
T1 construct: Eurofins Cerep France (contract assay)
In words: hERG [3H] Dofetilide binding assay. The settings on record: at 30 µM. The protocol:
hERG (human ether-a-go-go-related gene) inhibition was measured at Eurofins Cerep France using hERG Human Potassium Ion Channel [3H] Dofetilide Binding (Antagonist Radioligand) Assay.

A further data set in a line: Solubility in PBS pH 7.4. The data set is classed as physicochemical. The settings on record: PBS pH 7.4, pH 7.4, aqueous buffer, thermodynamic from solid. As to the method: 0.5 mg of BDM91288 (5) were dissolved either in 1235 μL of PBS pH 7.4 (triplicate) or in 1235 µL of DMSO (triplicate twice). After gently stirring 24 h at room temperature, the solutions were centrifuged for 5 min at 4000 rpm and filtered over 0.45-μm filters (Millex-LH Millipore), excepted one of the DMSO triplicate. Then, 2 µL of each solution was diluted in 998 µL of MeOH were transferred in matrix tubes for LC-MS/MS analysis. The solubility was determined according to the following formula: Solubility (µM) = [AUC(filtered PBS)/AUC(not filtered DMSO)] × 1000.

A short description of data set [5]: Toxicity in mice after a single oral administration. The data set is classed as in vivo. As to conditions: over a 24-h period after a single oral administration at 30 mg/kg. The protocol:
For these reasons, this compound was selected for multi-organ pharmacokinetic (PK) studies to measure its temporal distribution and tissue concentration in female mice (CD-1), following a single oral administration of 30 mg/kg (Fig. EV3A; Appendix Table S3).

The nature of data set [6]: Plasma protein binding by equilibrium dialysis. The data set is classed as in vitro ADME. The settings on record: pH 7.4, mouse plasma, read-out: plasma protein binding, Funbound. The protocol:
In vitro plasma protein binding of BDM91288 (5) was measured in mouse plasma using equilibrium dialysis. The RED inserts were placed in a 48-well Teflon Plate (Pierce). Samples were prepared by mixing test compound with plasma at the appropriate concentration to reach a final drug concentration of 10 μM. Triplicate aliquots of plasma containing BDM91288 (5) at a concentration of 10 μM were pipetted to plasma side (red) of the insert and PBS pH 7.4 was placed into the receiver side (white) of the insert. The plate was covered with sealing tape and incubated in a 37 °C orbital shaker water bath for 4 h. Following incubation, samples were prepared in a mixed matrix configuration. Aliquots of samples were pipetted into 96-well plates and precipitation buffer was added to precipitate the proteins. Samples were mixed by vortexing, then centrifuged for 10 min at 12,000 rpm at 4 °C. The supernatant was assayed directly by LC-MS/MS. The following equation was used to calculate the percentage of bound drug fraction (% PPB) using this equilibrium dialysis method: % unbound = ([Buffer chamber]/[Plasma chamber) × 100.
For orientation: In equilibrium dialysis free small molecules cross a membrane that holds back macromolecules.

Marks after values point to notes of the source that are not given here. A value given as a limit tells only on which side of the number the result lay.

T1 sequence (Q12809 whole entry): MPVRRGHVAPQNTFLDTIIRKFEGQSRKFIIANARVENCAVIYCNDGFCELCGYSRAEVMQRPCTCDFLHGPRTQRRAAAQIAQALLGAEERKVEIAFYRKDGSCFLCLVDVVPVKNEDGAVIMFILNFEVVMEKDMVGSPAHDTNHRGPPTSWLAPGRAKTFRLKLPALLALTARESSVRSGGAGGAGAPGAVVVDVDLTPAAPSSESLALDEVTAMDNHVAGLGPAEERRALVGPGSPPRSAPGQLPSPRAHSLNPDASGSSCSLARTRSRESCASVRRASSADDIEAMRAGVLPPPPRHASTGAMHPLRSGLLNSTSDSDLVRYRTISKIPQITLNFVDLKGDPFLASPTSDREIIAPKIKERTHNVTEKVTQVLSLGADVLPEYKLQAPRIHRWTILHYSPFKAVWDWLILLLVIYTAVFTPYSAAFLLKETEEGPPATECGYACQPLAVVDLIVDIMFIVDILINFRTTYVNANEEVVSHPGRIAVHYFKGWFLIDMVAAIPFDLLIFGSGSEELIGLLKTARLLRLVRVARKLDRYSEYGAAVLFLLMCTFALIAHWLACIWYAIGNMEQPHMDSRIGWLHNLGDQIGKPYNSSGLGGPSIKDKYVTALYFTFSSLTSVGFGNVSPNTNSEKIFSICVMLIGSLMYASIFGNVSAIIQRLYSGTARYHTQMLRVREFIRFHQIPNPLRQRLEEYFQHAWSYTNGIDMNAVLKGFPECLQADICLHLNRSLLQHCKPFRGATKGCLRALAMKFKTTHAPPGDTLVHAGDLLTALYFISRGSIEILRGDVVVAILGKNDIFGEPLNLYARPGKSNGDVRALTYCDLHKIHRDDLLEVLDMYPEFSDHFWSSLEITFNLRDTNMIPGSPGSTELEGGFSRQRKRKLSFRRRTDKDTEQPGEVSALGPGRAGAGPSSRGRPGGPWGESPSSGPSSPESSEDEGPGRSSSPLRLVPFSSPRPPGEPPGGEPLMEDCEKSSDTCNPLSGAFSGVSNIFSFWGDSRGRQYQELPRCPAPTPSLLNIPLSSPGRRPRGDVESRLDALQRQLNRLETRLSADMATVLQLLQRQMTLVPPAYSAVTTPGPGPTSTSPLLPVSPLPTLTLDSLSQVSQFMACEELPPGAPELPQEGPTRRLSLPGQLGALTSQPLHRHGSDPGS

With `C[C@H]1COc2c(N3CCN(C)CC3)c(F)cc3c(=O)c(C(=O)O)cn1c23` [Levofloxacin], the “Minimum Inhibitory Concentration” value is given as 0.01^# mg/L in data set [1] (+ 100 µM 1'); 0.01^# mg/L in data set [1] (+ 100 µM 5); 0.02^# mg/L in data set [1] (+ 100 µM PAβN); 1.28 mg/L in data set [2] (+ 100 µM 1'); 1.28 mg/L in data set [2] (+ 100 µM 5); 0.05^# mg/L in data set [2] (+ 100 µM PAβN). Also, the “Minimum Inhibitory Concentration” value in data set [2] (No EPI) was determined as 1.28 mg/L. In data set [1] (Klebsiella pneumoniae, ATCC43816, No EPI, read-out: Minimum Inhibitory Concentration), the MIC was found to be 0.04 µg/mL.

For the molecule `Clc1cc2cc(N3CCNCC3)ccc2nc1N1CCNCC1` [compound 5], in data set [3], the Kp was 2.3. Further, the EC90 in the data set with E. coli BW25113 worked out at 3.3 ± 1.7 µM. The “inhibition of the hERG potassium channel” value in data set [4] was 8%. In “Solubility in PBS pH 7.4”, this molecule showed a solubility at 24 h not below 1000 µM. In addition, the toxicity in mice entry in data set [5] is “no toxicity was observed”. The fraction unbound at 4 h, 10 μM in data set [6] was 0.54.

As a reminder, the EC90 is the concentration needed for an effect of 90%. Usually solubility stands for the concentration that dissolves in the medium under given conditions. Read a high solubility as much dissolved substance.
